The numbers were not newly measured in patent publication US20090005321A1, “Phenylazetidinone Derivatives” (Microbia, Inc., priority 2005, published 2009), which cites them from elsewhere.

For series [1] the following is noted: in humans.
The conditions of series [2]: in vivo.

`O=C1[C@H](CC[C@H](O)c2ccc(F)cc2)[C@@H](c2ccc(O)cc2)N1c1ccc(F)cc1` [ezetimibe, (3R,4S)-1-(4-fluorophenyl)-3-[(3S)-3-(4-fluorophenyl)-3-hydroxypropyl]-4-(4-hydroxyphenyl)azetidin-2-one]: the fat-soluble vitamin absorption entry in series [1] was “does not appear to affect”. Besides, the “absorption of taurocholic acid” value in series [2] is reported as “does not inhibit”.
